The values that follow come from paper PMC8151276, “An Integrated Approach toward NanoBRET Tracers for Analysis of GPCR Ligand Engagement” (Molecules, 2021).

For one assay, the target named is T1, PTGDR (Homo sapiens, UniProt Q13258).
T1 construct: purchased Promega (in-house HiBiT-GPCR construct library, NanoBRET)
T1 sequence (Q13258 1-359): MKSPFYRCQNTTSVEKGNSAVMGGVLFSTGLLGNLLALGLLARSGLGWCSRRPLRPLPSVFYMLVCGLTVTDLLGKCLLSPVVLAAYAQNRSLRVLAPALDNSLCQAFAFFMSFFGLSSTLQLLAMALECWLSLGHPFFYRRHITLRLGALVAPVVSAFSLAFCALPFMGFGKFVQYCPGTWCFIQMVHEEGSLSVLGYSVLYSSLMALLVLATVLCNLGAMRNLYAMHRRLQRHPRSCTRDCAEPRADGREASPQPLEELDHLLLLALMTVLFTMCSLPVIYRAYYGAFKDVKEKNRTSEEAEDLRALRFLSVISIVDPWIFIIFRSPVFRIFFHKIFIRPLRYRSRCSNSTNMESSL
In words: NanoBRET screen HiBiT-PTGDR in HEK293. The format is binding. On the procedure:
(§1) Each tracer candidate was screened across the entire library of HiBiT-GPCR constructs using NanoBRET as the detection modality. As depicted in Figure 4A, the specificity of interactions was evaluated through decrease in BRET due to competitive displacement of a bound tracer by excess parental compound. Each tracer was analyzed for binding to each HiBiT-GPCR fusion in the absence and in the presence of competing parental compound. Briefly, HEK293 cells were transfected with HiBiT-GPCR constructs diluted into promoterless DNA to reduce expression and maximize translocation to the cell surface. Each tracer candidate was then screened at concentrations of 1 μM and 0.1 μM across cells expressing these fusions. Cells were treated for 1.5 h with tracer either alone or in the presence of 20 μM competing parental compound (i.e., control). BRET was measured upon addition of purified LgBiT and subsequent complementation with HiBiT genetically fused to a GPCR. The specificity of interactions was assessed through a decrease in BRET signal due to competitive displacement of the bound tracer. To further gauge the robustness of these interactions, the fold response over the control (i.e., BRETtracer/BRETcontrol) was calculated. We chose a 1.5-fold response, which translates to ≥7-fold signal over noise as the minimal threshold required to score an interaction as positive. […]. Below we highlight the screening results obtained for our exemplary fluorescent tracers based on Clozapine, Amitriptyline and AZD1283.
(§2) HiBiT-GPCR DNA constructs were diluted in 10 mM Tris pH 8 to a final concentration of 0.01 μg/μL, arrayed in 96-well plates and stored at −20 °C. For transfection, HEK293 cells were suspended in Opti-MEM (without phenol red) supplemented with 2% fetal bovine serum (Seradigm) and 100 units/mL penicillin–streptomycin (Gibco) at a final concentration of 220,000 cells/mL and dispensed into white 96-well plates at 90 μL/well. Subsequent transfections and screens were carried using an Agilent Bravo Automated Liquid Handling Platform. First, the 96-well HiBiT DNA arrays were diluted 25-fold in Opti-MEM (without serum or phenol red) to a final concentration of 0.0004 μg/μL and 20 μL of the diluted DNAs were transferred into new 96-well plates. Next, promoterless carrier DNA (1 μg/μL) was diluted 25-fold (0.04 μg/μL) and then dispensed into the diluted arrays at 20 μL/well. Following brief mixing, Viafect transfection reagent (Promega) diluted 16-fold into Opti-MEM was dispensed into the plates at 40 μL/well. After mixing by pipetting, plates were incubated for 10 min on the pipetting station deck. The DNA-transfection reagent complexes were then added to plates containing cells. To facilitate the screen, 10 μL of DNA-transfection reagent complexes were added in duplicates to the top 4 and bottom 4 rows, resulting in two identical 48-well arrays per plate. Plates with transfected cells were incubated for 18–20 h at 37 °C/5% CO2. A screen of each tracer across the entire library using two different concentrations requires duplicate plates of transfected cells. Depending on the number of tracers being screened, transfections can be scaled up using the same ratios. The next day, for each tracer, four 20× screening solutions in tracer dilution buffer (Promega) were prepared: two duplicates at final concentration of 20 μM and two duplicates at a final concentration of 2 μM. A competing unmodified compound was added to one of each duplicate at a final concentration of 400 μM. The four resulting solutions were diluted 4-fold in Opti-MEM without serum or phenol red to generate 5× solutions (5 µM and 0.5 µM tracer +/− 100 μM competing compound). To screen the library, a BioTek MultiFlo FX liquid dispenser was used to dispense 22.5 µL of tracer solution to the top 4 rows and 22.5 µL tracer + competing compound solution to the 4 bottom rows. Plates were briefly mixed on an orbital shaker and incubated for 1.5 h at room temperature. […]
Background: In BRET a luciferase serves as donor, and the signal depends on an acceptor being close.

A further assay addresses T2, PTGDR2 (Homo sapiens, UniProt Q9Y5Y4).
T2 construct: purchased Promega (in-house HiBiT-GPCR construct library, NanoBRET)
T2 sequence (Q9Y5Y4 1-395): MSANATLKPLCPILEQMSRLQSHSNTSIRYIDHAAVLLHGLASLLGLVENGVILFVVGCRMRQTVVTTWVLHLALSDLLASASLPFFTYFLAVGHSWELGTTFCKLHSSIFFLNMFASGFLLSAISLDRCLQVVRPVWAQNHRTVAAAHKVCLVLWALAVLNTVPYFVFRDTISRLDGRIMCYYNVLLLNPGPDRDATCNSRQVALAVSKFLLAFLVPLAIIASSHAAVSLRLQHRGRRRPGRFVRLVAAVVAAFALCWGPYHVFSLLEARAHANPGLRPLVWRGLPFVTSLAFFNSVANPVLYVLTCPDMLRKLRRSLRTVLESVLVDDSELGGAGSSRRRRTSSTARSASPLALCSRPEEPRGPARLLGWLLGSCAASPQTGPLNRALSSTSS
In words: NanoBRET screen HiBiT-PTGDR2 in HEK293. The format is binding. On the procedure: as §1, §2

As to `COc1ccc2c(n1)c(CCNC(C)=O)cn2CCNC(=O)CCc1ccc2n1[B-](F)(F)[N+]1=C(c3ccc[nH]3)C=CC1=C2` [Azamelatonin-1-NB590], the “NanoBRET Fold Response” value is 1.13 at PTGDR (0.1μM tracer), 1.18 on PTGDR (1μM tracer), 1.08 at PTGDR2 (0.1μM tracer) and 1.09 at PTGDR2 (1μM tracer).
As for `CC(C)N(CC[C@H](c1ccccc1)c1cc(CCNC(=O)c2ccc(CNC(=O)CCc3ccc4n3[B-](F)(F)[N+]3=C(c5ccc[nH]5)C=CC3=C4)cc2)ccc1O)C(C)C` [Tolterodine-BZ-NB590], the “NanoBRET Fold Response” value at PTGDR (PTGDR, tracer 0.1μM) is 1.03; at PTGDR (PTGDR, tracer 1μM), 0.98; on PTGDR2 (PTGDR2, tracer 0.1μM), 0.98; on PTGDR2 (PTGDR2, tracer 1μM) it was 0.96.
`O=C(CCc1ccc2n1[B-](F)(F)[N+]1=C(c3ccc[nH]3)C=CC1=C2)NCCOCCOCCNC(=O)OCCOCCN1CCN(C2=Nc3ccccc3Sc3ccccc32)CC1` [Quetiapine-a-2-NB590]: the “NanoBRET Fold Response” value is on record as 0.99 on PTGDR (PTGDR, tracer 0.1μM); 1.02 at PTGDR (PTGDR, tracer 1μM); 0.96 on PTGDR2 (PTGDR2, tracer 0.1μM); 1.05 on PTGDR2 (PTGDR2, tracer 1μM).
Taken in the same sequence, the figures for `Cc1cc2c(s1)Nc1ccccc1N=C2N1CCN(CCCNC(=O)CCOCCOCCOCCOCCNC(=O)CCc2ccc3n2[B-](F)(F)[N+]2=C(c4ccc[nH]4)C=CC2=C3)CC1` [Olanzapine-a-2-NB590] were 0.95, 1.09, 0.97 and 0.96.
As to `O=C(CCc1ccc2n1[B-](F)(F)[N+]1=C(c3ccc[nH]3)C=CC1=C2)NCc1ccc(C(=O)NCCOCCOCCNCC(O)COc2cccc3ccccc23)cc1` (centres unmarked) [Propranolol-3-NB590], the “NanoBRET Fold Response” value came to 1.05 on PTGDR (PTGDR, 0.1μM); 0.98 at PTGDR (PTGDR, 1μM); 0.96 at PTGDR2 (PTGDR2, 0.1μM); 1.06 at PTGDR2 (PTGDR2, 1μM).
Regarding `CN1CCN(C2=Nc3cc(Cl)ccc3N(CC(=O)NCCOCCOCCOCCOCCNC(=O)CCc3ccc4n3[B-](F)(F)[N+]3=C(c5ccc[nH]5)C=CC3=C4)c3ccccc32)CC1` [Clozapine-c-2-NB590], the “NanoBRET Fold Response” value on PTGDR (PTGDR, 0.1μM tracer) amounted to 1.04; on PTGDR (PTGDR, 1μM tracer), 1.07; on PTGDR2 (PTGDR2, 0.1μM tracer) it was 0.96; on PTGDR2 (PTGDR2, 1μM tracer) it was 1.02.
`O=C(CCc1ccc2n1[B-](F)(F)[N+]1=C(c3ccc[nH]3)C=CC1=C2)NCc1ccc(C(=O)NCCOCCC(=O)N[C@@H]2CC[C@@]3(O)[C@H]4Cc5ccc(O)c6c5[C@@]3(CCN4CC3CC3)[C@H]2O6)cc1` [Naltrexone-3-NB590]: the “NanoBRET Fold Response” value on PTGDR (PTGDR, tracer 0.1μM) came out at 0.85; on PTGDR (PTGDR, tracer 1μM), 0.97; at PTGDR2 (PTGDR2, tracer 0.1μM), 0.98; on PTGDR2 (PTGDR2, tracer 1μM), 1.00.
For `CC(C)N(CC[C@H](c1ccccc1)c1cc(CCNC(=O)CCOCCOCCOCCOCCNC(=O)CCc2ccc3n2[B-](F)(F)[N+]2=C(c4ccc[nH]4)C=CC2=C3)ccc1O)C(C)C` [Tolterodine-2-NB590], in that order: 1.16, 0.96, 0.95 and 0.99.
Turning to `Cc1nc2n(c(=O)c1CCN1CCC(c3noc4cc(F)ccc34)CC1)CCCC2OC(=O)NCCOCCOCCOCCOCCNC(=O)CCc1ccc2n1[B-](F)(F)[N+]1=C(c3ccc[nH]3)C=CC1=C2` (centres unmarked) [Risperidone-2-NB590], the “NanoBRET Fold Response” value at PTGDR (PTGDR, tracer 0.1μM) was found to be 1.01; at PTGDR (PTGDR, tracer 1μM), 0.93; at PTGDR2 (PTGDR2, tracer 0.1μM), 0.99; at PTGDR2 (PTGDR2, tracer 1μM) it was 0.96.
Take `O=C(CCOCCOCCOCCOCCNC(=O)CCc1ccc2n1[B-](F)(F)[N+]1=C(c3ccc[nH]3)C=CC1=C2)NCCCN1CCN(C2=Nc3cc(Cl)ccc3Nc3ccccc32)CC1` [Clozapine-a-2-NB590]: the “NanoBRET Fold Response” value on PTGDR (PTGDR, 0.1μM tracer) was determined as 1.10; on PTGDR (PTGDR, 1μM tracer), 0.99; at PTGDR2 (PTGDR2, 0.1μM tracer) it was 1.01; on PTGDR2 (PTGDR2, 1μM tracer), 1.00.
As to `COc1ccc2[nH]c(-c3ccc(CNC(=O)CCOCCOCCOCCOCCNC(=O)CCc4ccc5n4[B-](F)(F)[N+]4=C(c6ccc[nH]6)C=CC4=C5)cc3)c(CCNC(C)=O)c2n1` [AzomelatoninICO9-2-NB590], the “NanoBRET Fold Response” value on PTGDR (0.1μM tracer) is on record as 1.06; at PTGDR (1μM tracer), 0.88; on PTGDR2 (0.1μM tracer), 1.06; at PTGDR2 (1μM tracer), 1.12.
For `CN1CCN(C2=Nc3cc(Cl)ccc3Nc3ccc(CNC(=O)CCOCCOCCOCCOCCNC(=O)CCc4ccc5n4[B-](F)(F)[N+]4=C(c6ccc[nH]6)C=CC4=C5)cc32)CC1` [Clozapine-b-2-NB590], the “NanoBRET Fold Response” value at PTGDR (PTGDR, 0.1μM tracer) came to 1.10; on PTGDR (PTGDR, 1μM tracer), 1.01; on PTGDR2 (PTGDR2, 0.1μM tracer), 1.01; on PTGDR2 (PTGDR2, 1μM tracer), 1.02.
Regarding `COc1ccccc1N1CCN(CCCCN2C(=O)c3ccc(CNC(=O)CCOCCNC(=O)c4ccc(CNC(=O)CCc5ccc6n5[B-](F)(F)[N+]5=C(c7ccc[nH]7)C=CC5=C6)cc4)cc3C2=O)CC1` [NAN-190-3-NB590], the “NanoBRET Fold Response” value on PTGDR (PTGDR, tracer 0.1μM) is recorded as 0.96; at PTGDR (PTGDR, tracer 1μM) it was 0.98; on PTGDR2 (PTGDR2, tracer 0.1μM), 0.87; at PTGDR2 (PTGDR2, tracer 1μM), 0.85.
Taken in the same sequence, the figures for `N#CN=C(NCCCOc1cccc(CN2CCCCC2)c1)NCCNC(=O)CCOCCOCCOCCOCCNC(=O)CCc1ccc2n1[B-](F)(F)[N+]1=C(c3ccc[nH]3)C=CC1=C2` [Aminopotentidine-2-NB590] were 0.99, 0.79, 0.98 and 0.48.
`CN(C)CCC=C1c2ccccc2CCc2ccc(C(=O)NCCNC(=O)CCOCCOCCOCCOCCNC(=O)CCc3ccc4n3[B-](F)(F)[N+]3=C(c5ccc[nH]5)C=CC3=C4)cc21` [Amitriptyline-b-2-NB590]: the “NanoBRET Fold Response” value at PTGDR (tracer at 1μM) is on record as 1.03; at PTGDR2 (tracer at 0.1μM) it was 1.00; on PTGDR2 (tracer at 1μM), 1.00.
